US20250034159A1, “INHIBITORS OF EPIDERMAL GROWTH FACTOR RECEPTOR” (ORIC Pharmaceuticals, Inc., priority 2021, published 2025)
Read-outs that look alike come from different tables or passages of the source.

Tests used:
[1] = target: recombinant human EGFR exon 19 deletion/C797S double mutant protein (Homo sapiens (Human), UniProt P00533, C797S/DEL746-750); assay: Biological Activity Assay C: biochemical assay against EGFR exon 19 deletion/C797S protein (EGFR d19/CS)
Method in brief: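 IC50 values were fitted with a 4-parameter model to reaction slopes taken from 90 kinetic reads spaced 120 s apart. The Phosphosens sensor/ATP working solution was 40 uM/4 mM, and compound was dosed as 16-point dilutions at 2.5% final DMSO.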

BaF3_EGFR LR/CS cells = assay: Biological Activity Assay D: BaF3 cell proliferation assay, EGFR L858R/C797S mutant (BaF3 LR/CS); format: cell-based; conditions: Ba/F3 EGFR, read-out: BaF3 LR/CS IC50
BaF3_EGFR d19/CS cells = assay: Biological Activity Assay D: BaF3 cell proliferation assay, EGFR exon 19 deletion/C797S (BaF3 d19/CS); format: cell-based; conditions: Ba/F3 EGFR, read-out: BaF3 d19/CS IC50
Ba/F3_EGFR WT cells = assay: Biological Activity Assay D: BaF3 cell proliferation assay, EGFR wild-type (BaF3 WT); format: cell-based; conditions: Ba/F3 EGFR, read-out: BaF3 WT IC50
[2] = target: recombinant human EGFR L858R/C797S double mutant protein (Homo sapiens (Human), UniProt P00533, C797S/L858R); assay: Biological Activity Assay B: biochemical assay against EGFR L858R/C797S protein (EGFR LR/CS)
Description: In Row A of a 384-well polypropylene plate, was added 48 μL of DMSO. In wells A1 and A24, were added 12 μL of DMSO. […] To a well in Row A were added 12 μL of each 10 mM test compound stock (100% DMSO). […] The final intermediate dilution plate contained 4×16-point compound serial dilutions in assay buffer. The DMSO concentration was 10%. The intermediate compound dilution plate was transferred to the Bravo and the “5 uL dispense into ARP.pro” protocol was run. To the black low volume assay ready plates, were added 5 μL of 40 uM Phosphosens peptide sensor/4 mM ATP working solution to each well. […] To column 24, was added 10 μL of assay buffer. The final DMSO concentration was 2.5%. […] The plates were sealed with the TopSeal-A Plus plate seals. […] Set for 90 cycles with 120 second interval. […] The slope of each curve was constructed using Dotmatics in each well, and each IC50s was calculated using a 4-parameter fit model.

[3] = BaF3_EGFR LR/CS cells, ~72 hours, CellTiter-Glo
[4] = BaF3_EGFR d19/CS cells, ~72 hours, CellTiter-Glo
[5] = Ba/F3_EGFR WT cells, ~72 hours, CellTiter-Glo

Chain of recombinant human EGFR L858R/C797S double mutant protein (P00533 25-1210 C797S/L858R): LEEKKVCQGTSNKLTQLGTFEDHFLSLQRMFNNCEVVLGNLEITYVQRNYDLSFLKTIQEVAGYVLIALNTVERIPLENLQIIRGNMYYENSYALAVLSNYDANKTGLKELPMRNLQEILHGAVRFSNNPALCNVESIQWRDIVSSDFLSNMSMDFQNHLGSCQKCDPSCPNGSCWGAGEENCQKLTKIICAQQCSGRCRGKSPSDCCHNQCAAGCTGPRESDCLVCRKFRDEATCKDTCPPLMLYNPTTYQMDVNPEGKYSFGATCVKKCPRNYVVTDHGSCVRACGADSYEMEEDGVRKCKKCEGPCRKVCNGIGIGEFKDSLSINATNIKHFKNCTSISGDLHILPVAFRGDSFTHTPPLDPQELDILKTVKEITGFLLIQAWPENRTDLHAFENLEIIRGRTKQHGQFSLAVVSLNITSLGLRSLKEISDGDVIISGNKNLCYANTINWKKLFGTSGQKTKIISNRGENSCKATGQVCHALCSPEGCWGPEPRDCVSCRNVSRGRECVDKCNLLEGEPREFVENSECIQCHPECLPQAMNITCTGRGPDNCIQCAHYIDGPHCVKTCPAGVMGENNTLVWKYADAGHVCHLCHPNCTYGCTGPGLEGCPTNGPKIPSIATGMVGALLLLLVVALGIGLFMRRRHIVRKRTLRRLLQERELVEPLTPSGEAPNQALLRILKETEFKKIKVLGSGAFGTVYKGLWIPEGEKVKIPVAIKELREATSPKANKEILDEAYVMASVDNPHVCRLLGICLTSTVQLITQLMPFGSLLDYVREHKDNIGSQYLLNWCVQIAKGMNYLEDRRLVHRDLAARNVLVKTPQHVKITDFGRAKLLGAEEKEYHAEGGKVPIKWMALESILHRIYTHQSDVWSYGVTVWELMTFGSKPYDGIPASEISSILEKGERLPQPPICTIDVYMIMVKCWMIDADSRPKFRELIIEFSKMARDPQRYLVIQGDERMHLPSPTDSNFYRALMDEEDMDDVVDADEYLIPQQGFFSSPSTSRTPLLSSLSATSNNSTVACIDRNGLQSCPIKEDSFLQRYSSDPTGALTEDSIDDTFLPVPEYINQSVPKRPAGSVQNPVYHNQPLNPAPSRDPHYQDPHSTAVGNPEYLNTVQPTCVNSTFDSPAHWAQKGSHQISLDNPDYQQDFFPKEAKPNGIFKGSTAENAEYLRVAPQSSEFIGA
Chain of recombinant human EGFR exon 19 deletion/C797S double mutant protein (P00533 other isoform, or with tags, fused parts or gaps C797S/del 1-668/del 746-750 limits assumed): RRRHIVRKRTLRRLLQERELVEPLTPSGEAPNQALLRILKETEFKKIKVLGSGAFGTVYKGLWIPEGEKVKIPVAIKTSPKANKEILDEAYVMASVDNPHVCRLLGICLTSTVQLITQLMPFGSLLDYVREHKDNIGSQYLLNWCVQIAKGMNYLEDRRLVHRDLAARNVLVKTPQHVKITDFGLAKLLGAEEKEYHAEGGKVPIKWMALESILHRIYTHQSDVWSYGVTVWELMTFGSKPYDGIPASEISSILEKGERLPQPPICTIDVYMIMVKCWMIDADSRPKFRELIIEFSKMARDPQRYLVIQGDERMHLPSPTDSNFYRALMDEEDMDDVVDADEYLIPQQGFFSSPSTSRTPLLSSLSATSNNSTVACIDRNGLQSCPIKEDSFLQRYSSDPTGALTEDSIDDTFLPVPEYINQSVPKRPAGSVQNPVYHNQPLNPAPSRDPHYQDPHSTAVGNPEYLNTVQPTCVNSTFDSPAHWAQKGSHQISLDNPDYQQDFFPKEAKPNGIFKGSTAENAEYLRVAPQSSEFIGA

Structure (SMILES) | IC50 [1] [nM] | IC50 (BaF3_EGFR LR/CS cells; [3]) [nM] | IC50 (BaF3_EGFR d19/CS cells; [4]) [nM] | IC50 (Ba/F3_EGFR WT cells; [5]) [nM] | IC50 [2] [nM] | IC50 (BaF3_EGFR LR/CS cells; 72 h) [nM] | IC50 (BaF3_EGFR d19/CS cells; 72 h) [nM] | IC50 (Ba/F3_EGFR WT cells; 72 h) [nM]
OCCCn1cc(-c2ccnc3[nH]c(-c4nnco4)cc23)c(-c2ccc(F)cc2)n1 [Example 17, 3-{3-(4-Fluorophenyl)-4-[2-(1,3,4-oxadiazol-2-yl)-1H-pyrrolo[2,3-b]pyridin-4-yl]-1H-pyrazol-1-yl}propan-1-ol] | 3.46 | 153 | 157 | 1740 | 8.44 | – | – | –
NC(=O)CCc1nc(-c2ccc(F)cc2)c(-c2ncnc3oc(-c4ccccc4)cc23)o1 [Example 49, 3-[4-(4-fluorophenyl)-5-(6-phenylfuro[2,3-d]pyrimidin-4-yl)-1,3-oxazol-2-yl]propanamide] | 1.77 | 132 | 250 | 20000 | 3.42 | – | – | –
CC(C)(O)CCn1cc(-c2ncnc3oc(-c4ccccc4)nc23)c(-c2ccc(F)cc2)n1 [Example 21, 4-[3-(4-Fluorophenyl)-4-(2-phenyl[1,3]oxazolo[5,4-d]pyrimidin-7-yl)-1H-pyrazol-1-yl]-2-methylbutan-2-ol] | 5.47 | 375 | 539 | 18500 | 5.2 | – | – | –
CN(C)C(=O)CCc1nc(-c2ccc(F)cc2)c(-c2ncnc3oc(-c4ccccc4)cc23)o1 [Example 37, 3-[4-(4-fluorophenyl)-5-(6-phenylfuro[2,3-d]pyrimidin-4-yl)-1,3-oxazol-2-yl]-N,N-dimethylpropanamide] | 2.6 | 318 | 514 | 6280 | 1.87 | – | – | –
OCCCn1cc(-c2ncnc3sc(-c4ccccc4)cc23)c(-c2ccc(F)cc2)n1 [Example 68, 3-[3-(4-fluorophenyl)-4-(6-phenylthieno[2,3-d]pyrimidin-4-yl)-1H-pyrazol-1-yl]propan-1-ol] | 2.25 | 203 | 723 | – | 5.49 | – | – | –
Fc1ccc(-c2nn(C3CCCOC3)cc2-c2ncnc3oc(-c4ccccc4)cc23)cc1 (racemic) [Example 122, 4-(3-(4-Fluorophenyl)-1-(tetrahydro-2H-pyran-3-yl)-1H-pyrazol-4-yl)-6-phenylfuro[2,3-d]pyrimidine] | 0.55 | 68 | 114 | 1850 | – | – | – | –
O=S1(=O)CC(n2cc(-c3ncnc4oc(-c5cccc(C(F)(F)F)c5)cc34)c(-c3ccc(F)cc3)n2)C1 [Example 169, 3-[3-(4-fluorophenyl)-4-{6-[3-(trifluoromethyl)phenyl]furo[2,3-d]pyrimidin-4-yl}-1H-pyrazol-1-yl]-1λ6-thietane-1,1-dione] | 3.08 | 399 | 461 | 11300 | – | – | – | –
CC(=O)NCCCn1cc(-c2ncnc3oc(-c4ccccc4)cc23)c(-c2ccc(F)cc2)n1 [Example 141, N-{3-[3-(4-Fluorophenyl)-4-(6-phenylfuro[2,3-d]pyrimidin-4-yl)-1H-pyrazol-1-yl]propyl}acetamide] | 0.25 | – | – | – | – | 43.6 | 66.1 | 921
Fc1ccc(-c2nn(C3CCC(F)(F)CC3)cc2-c2ncnc3oc(-c4ccccc4)cc23)cc1 [Example 142, 4-[1-(4,4-difluorocyclohexyl)-3-(4-fluorophenyl)-1H-pyrazol-4-yl]-6-phenylfuro[2,3-d]pyrimidine] | 5.19 | 313 | 398 | 6070 | – | – | – | –
CC(C)(O)Cn1cc(-c2ncnc3oc(-c4cccnc4O)cc23)c(-c2ccc(F)cc2)n1 [Example 283, 3-{4-[3-(4-fluorophenyl)-1-(2-hydroxy-2-methylpropyl)-1H-pyrazol-4-yl]furo[2,3-d]pyrimidin-6-yl}pyridin-2-ol] | 0.113 | 9.79 | 9.47 | 657 | – | – | – | –

The remaining compounds from weak to strong by IC50 [1], led by results:

IC50 [1] [nM] | IC50 (BaF3_EGFR LR/CS cells; [3]) [nM] | IC50 (BaF3_EGFR d19/CS cells; [4]) [nM] | IC50 (Ba/F3_EGFR WT cells; [5]) [nM] | IC50 [2] [nM] | Structure (SMILES) | IC50 (BaF3_EGFR LR/CS cells; 72 h) [nM] | IC50 (BaF3_EGFR d19/CS cells; 72 h) [nM] | IC50 (Ba/F3_EGFR WT cells; 72 h) [nM]
18.6 | 1630 | 1050 | 8040 | 15.6 | CC(C)(O)CCn1cc(-c2ncnc3sc(-c4ccccc4)cc23)c(-c2ccc(F)cc2)n1 [Example 67, 4-[3-(4-fluorophenyl)-4-(6-phenylthieno[2,3-d]pyrimidin-4-yl)-1H-pyrazol-1-yl]-2-methylbutan-2-ol] | – | – | –
3.25 | 143 | 388 | – | 6.38 | Fc1ccc(-c2nn(C3COC3)cc2-c2ncnc3oc(-c4ccccc4)nc23)cc1 [Example 80, 7-[3-(4-fluorophenyl)-1-(oxetan-3-yl)-1H-pyrazol-4-yl]-2-phenyl[1,3]oxazolo[5,4-d]pyrimidine] | – | – | –
2.9 | 267 | 920 | > 20000 | 9.37 | OCCCc1nc(-c2ccc(F)cc2)c(-c2ncnc3sc(-c4ccccc4)cc23)o1 [Example 74, 3-[4-(4-fluorophenyl)-5-(6-phenylthieno[2,3-d]pyrimidin-4-yl)-1,3-oxazol-2-yl]propan-1-ol] | – | – | –
1.57 | 4.38 | 3.39 | 816 | 1.47 | N#Cc1c(-c2ccc(F)cc2)c(-c2ccnc3[nH]c(-c4ccccc4)cc23)nn1CCCO [Example 16, 4-(4-Fluorophenyl)-1-(3-hydroxypropyl)-3-(2-phenyl-1H-pyrrolo[2,3-b]pyridin-4-yl)-1H-pyrazole-5-carbonitrile] | – | – | –
1.04 | 81.9 | 162 | 3000 | – | CS(=O)(=O)CCn1cc(-c2ncnc3[nH]c(-c4ccccc4)nc23)c(-c2ccc(F)cc2)n1 [Example 131, 6-{3-(4-fluorophenyl)-1-[2-(methanesulfonyl)ethyl]-1H-pyrazol-4-yl}-8-phenyl-9H-purine] | – | – | –
0.75 | 630 | 440 | 16300 | – | O=S1(=O)CC(n2cc(-c3ncnc4oc(C5=CNCCC5)cc34)c(-c3ccc(F)cc3)n2)C1 [Example 154, 3-{3-(4-fluorophenyl)-4-[6-(1,4,5,6-tetrahydropyridin-3-yl)furo[2,3-d]pyrimidin-4-yl]-1H-pyrazol-1-yl}-1λ6-thietane-1,1-dione] | – | – | –
0.67 | 292 | 169 | 3760 | – | CNC(=O)c1ccccc1-c1cc2c(-c3cn(C4CS(=O)(=O)C4)nc3-c3ccc(F)cc3)ncnc2o1 [Example 229, 2-{4-[1-(1,1-dioxo-1λ6-thietan-3-yl)-3-(4-fluorophenyl)-1H-pyrazol-4-yl]furo[2,3-d]pyrimidin-6-yl}-N-methylbenzamide] | – | – | –
0.62 | 73.8 | 150 | 1480 | 0.39 | O=S1(=O)CC[C@H](Cn2cc(-c3ncnc4oc(-c5ccccc5)cc34)c(-c3ccc(F)cc3)n2)C1 (single isomer, unassigned) [Example 96] | – | – | –
0.446 | 97.9 | 66.5 | 3320 | 0.521 | Fc1ccc(-c2nn(C3COC3)cc2-c2ncnc3oc(-c4ccccc4)cc23)cc1 [Example 31, 4-[3-(4-Fluorophenyl)-1-(oxetan-3-yl)-1H-pyrazol-4-yl]-6-phenylfuro[2,3-d]pyrimidine] | – | – | –
0.378 | 40.2 | 68.6 | 2340 | 0.452 | Fc1ccc(-c2nn(CC3CCO3)cc2-c2ncnc3oc(-c4ccccc4)cc23)cc1 (stereo not drawn) [Example 69, 4-{3-(4-Fluorophenyl)-1-[(oxetan-2-yl)methyl]-1H-pyrazol-4-yl}-6-phenylfuro[2,3-d]pyrimidine] | – | – | –
0.35 | 18.3 | 20.1 | 886 | – | Fc1ccc(-c2nn([C@@H]3CCOC[C@@H]3F)cc2-c2ncnc3oc(-c4ccccc4)cc23)cc1 (single isomer, unassigned) [Example 211] | – | – | –
0.29 | 26.3 | 36.3 | 888 | – | O=S1(=O)CC(n2cc(-c3ncnc4oc(-c5cccnc5)cc34)c(-c3ccc(F)cc3)n2)C1 [Example 164, 3-{3-(4-fluorophenyl)-4-[6-(pyridin-3-yl)furo[2,3-d]pyrimidin-4-yl]-1H-pyrazol-1-yl}-1λ6-thietane-1,1-dione] | – | – | –
0.29 | 19.6 | 53.8 | 1350 | – | CN1CC[C@@H](n2cc(-c3ncnc4oc(-c5ccccc5)cc34)c(-c3ccc(F)cc3)n2)C1=O (single isomer, unassigned) [Example 166] | – | – | –
